Source: paper PMC4126480, “Evaluation of drug interaction potential of Labisia pumila (Kacip Fatimah) and its constituents” (Frontiers in Pharmacology, 2014)
Where “and” joins values, the source holds several entries; their conditions need not be identical. Equal values may be shown once.

Legend:
CYP2C9 [1] = target: T1, CYP2C9 (Homo sapiens, UniProt P11712); assay: Reversible inhibition (co-incubation assay) of recombinant CYP2C9; assay type: in vitro ADME
T1 construct: purchased BD Gentest (Woburn, MA, USA); host or cells: baculovirus expression system
T1 sequence (P11712 whole entry): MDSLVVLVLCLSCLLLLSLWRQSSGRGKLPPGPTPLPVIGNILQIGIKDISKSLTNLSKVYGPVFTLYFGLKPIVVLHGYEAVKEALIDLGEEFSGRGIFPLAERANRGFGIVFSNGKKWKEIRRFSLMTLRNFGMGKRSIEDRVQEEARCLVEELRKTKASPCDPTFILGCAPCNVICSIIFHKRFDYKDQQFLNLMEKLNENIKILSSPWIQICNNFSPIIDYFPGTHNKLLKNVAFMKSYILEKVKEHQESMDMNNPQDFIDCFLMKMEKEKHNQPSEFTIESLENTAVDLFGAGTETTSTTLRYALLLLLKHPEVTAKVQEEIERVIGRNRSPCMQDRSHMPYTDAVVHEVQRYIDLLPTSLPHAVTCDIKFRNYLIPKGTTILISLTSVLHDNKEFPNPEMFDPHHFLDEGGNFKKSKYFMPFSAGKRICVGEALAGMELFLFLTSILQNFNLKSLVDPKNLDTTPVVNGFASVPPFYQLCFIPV
Description: (§1) The assay for reversible inhibition was conducted in a total volume of 200 μL in 96-well microplates. The assay conditions, enzyme and substrate concentrations were similar as reported earlier ([Crespi et al., 1997]; [Manda et al., 2013]). Test samples or positive controls were serially diluted in a solution (100 μL) of cofactors mix, control protein (0.05 mg of protein/mL), and G-6-PDH to achieve six concentrations (100-0.4 μM or μg/mL). Initial readings were taken to record any inherent fluorescence and the plates were incubated at 37°C for 10 min. Reaction was initiated by the addition of enzyme substrate mixture (100 μL) followed by incubation for 15, 30, or 45 min. The reaction was terminated by the addition of 75 μL of ice cold acetonitrile/0.5 M Tris base (80:20). Fluorescence was measured on Spectramax M5 plate reader (Molecular Devices, Sunnyvale, CA, USA) at specified excitation and emission wavelengths for each substrate. IC50 values (co-incubation assay) were obtained from concentration-response curves generated by plotting concentration versus % inhibition.

CYP2C9 [2] = target: T1, CYP2C9; assay: Time dependent inhibition (pre-incubation assay) of recombinant CYP2C9; assay type: in vitro ADME; conditions: recombinant CYP2C9, 30 min pre-incubation
Description: (§2) Time dependent inhibition (TDI) of CYPs was measured as described earlier by [Sekiguchi et al. (2009)]. The reaction mixture (180–190 μL), consisting of test sample, recombinant enzyme, control protein (0.05 mg of protein/mL), cofactor mix, G-6-PDH, and 50 mM potassium phosphate buffer (pH 7.4) was pre-incubated for 30 min followed by addition of respective fluorescent substrates (10–20 μL) and further incubation for 15 (CYP1A2), 30 (CYP3A4), or 45 (CYP 2C9 and 2C19) min. The reaction was terminated by addition of 75 μL of ice cold acetonitrile/0.5 M Tris base (80:20) and fluorescence was measured as above. IC50 values (pre-incubation assay) were obtained as above. The shift in the concentration-response curve was calculated as the ratio of IC50 (co-incubation)/IC50 (pre-incubation).

CYP2C19 = target: T2, CYP2C19 (Homo sapiens, UniProt P33261); assay: Time dependent inhibition (pre-incubation assay) of recombinant CYP2C19; assay type: in vitro ADME; conditions: recombinant CYP2C19, 30 min pre-incubation
T2 construct: purchased BD Gentest (Woburn, MA, USA); host or cells: baculovirus expression system
T2 sequence (P33261 whole entry): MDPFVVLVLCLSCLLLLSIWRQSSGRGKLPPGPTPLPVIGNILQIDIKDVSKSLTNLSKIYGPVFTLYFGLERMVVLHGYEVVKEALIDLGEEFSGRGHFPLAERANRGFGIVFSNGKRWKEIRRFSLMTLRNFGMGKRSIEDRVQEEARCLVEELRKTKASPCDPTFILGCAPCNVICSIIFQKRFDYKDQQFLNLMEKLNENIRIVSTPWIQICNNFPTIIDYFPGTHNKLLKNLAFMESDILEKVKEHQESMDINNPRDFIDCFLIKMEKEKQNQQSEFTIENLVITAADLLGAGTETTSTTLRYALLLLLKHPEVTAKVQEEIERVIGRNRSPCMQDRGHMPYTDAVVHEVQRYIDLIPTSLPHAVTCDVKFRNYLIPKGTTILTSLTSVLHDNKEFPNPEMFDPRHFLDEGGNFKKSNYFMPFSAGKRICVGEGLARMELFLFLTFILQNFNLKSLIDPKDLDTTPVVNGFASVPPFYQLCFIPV
Description: as §2

CYP1A2 = target: T3, CYP1A2 (Homo sapiens, UniProt P05177); assay: Reversible inhibition of recombinant CYP1A2; assay type: in vitro ADME
T3 construct: purchased BD Gentest (Woburn, MA, USA); host or cells: baculovirus expression system
T3 sequence (P05177 1-516): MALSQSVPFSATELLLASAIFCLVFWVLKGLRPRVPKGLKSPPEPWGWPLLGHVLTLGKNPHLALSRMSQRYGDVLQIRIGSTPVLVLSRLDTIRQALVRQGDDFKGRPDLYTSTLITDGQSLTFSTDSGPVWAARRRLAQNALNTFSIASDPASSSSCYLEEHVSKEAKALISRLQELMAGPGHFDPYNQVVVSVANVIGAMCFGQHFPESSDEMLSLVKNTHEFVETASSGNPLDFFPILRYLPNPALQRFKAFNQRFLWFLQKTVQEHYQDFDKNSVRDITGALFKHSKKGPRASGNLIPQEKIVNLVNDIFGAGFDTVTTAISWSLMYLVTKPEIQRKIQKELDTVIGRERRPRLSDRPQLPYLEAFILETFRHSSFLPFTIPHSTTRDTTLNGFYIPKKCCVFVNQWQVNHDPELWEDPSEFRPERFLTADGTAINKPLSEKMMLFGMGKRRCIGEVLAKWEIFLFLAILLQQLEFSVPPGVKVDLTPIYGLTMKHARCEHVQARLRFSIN
Description: as §1

[3] = Estimation of concentration per dose, GIT and plasma concentrations (560 mg KF extract dose); set-up: species or system human; conditions: for Estimated concentration per dose: 560 mg KF extract, single dose, from % yield; for Estimated GIT concentration / Estimated Plasma concentration: 560 mg dose; for Estimated GIT concentration: human GIT volume 250 mL; for Estimated Plasma concentration: Table 2, plasma volume 3 L, 100% bioavailable assumed
Description: (§3) All assumptions to predict the HDI potential of KF methanolic extract and its constituents were according to previously published report ([Awortwe et al., 2014]). The % yield was calculated from the amounts extracted from the KF roots ([Ali and Khan, 2011]). The human GIT volume is 250 mL and plasma volume is about 3 L. The commonly used maximum dose of KF extract capsules is 560 mg per day ([Abdul Kadir et al., 2012]) and accordingly we estimated the concentration per dose, GIT, and plasma concentrations of extract and its constituents. We then compared the in vitro IC50 values obtained from recombinant CYPs with estimated GIT and plasma concentrations. If the IC50 values were lower than the GIT or plasma concentration, then the test compound or extract is likely to cause HDI in vivo.

CYP3A4 = target: T4, CYP3A4 (Homo sapiens, UniProt P08684); assay: Prediction of in vivo HDI from in vitro results, CYP3A4; set-up: key to Likelihood of causing HDI: If the IC50 values were lower than the GIT or plasma concentration, then the test compound or extract is likely to cause HDI in vivo; conditions: for Likelihood of causing HDI: CYP3A4, IC50 compared with estimated GIT and plasma concentrations; for Plasma concentration: Table 3, CYP3A4 section
T4 construct: purchased BD Gentest (Woburn, MA, USA); host or cells: baculovirus expression system
T4 sequence (P08684 whole entry): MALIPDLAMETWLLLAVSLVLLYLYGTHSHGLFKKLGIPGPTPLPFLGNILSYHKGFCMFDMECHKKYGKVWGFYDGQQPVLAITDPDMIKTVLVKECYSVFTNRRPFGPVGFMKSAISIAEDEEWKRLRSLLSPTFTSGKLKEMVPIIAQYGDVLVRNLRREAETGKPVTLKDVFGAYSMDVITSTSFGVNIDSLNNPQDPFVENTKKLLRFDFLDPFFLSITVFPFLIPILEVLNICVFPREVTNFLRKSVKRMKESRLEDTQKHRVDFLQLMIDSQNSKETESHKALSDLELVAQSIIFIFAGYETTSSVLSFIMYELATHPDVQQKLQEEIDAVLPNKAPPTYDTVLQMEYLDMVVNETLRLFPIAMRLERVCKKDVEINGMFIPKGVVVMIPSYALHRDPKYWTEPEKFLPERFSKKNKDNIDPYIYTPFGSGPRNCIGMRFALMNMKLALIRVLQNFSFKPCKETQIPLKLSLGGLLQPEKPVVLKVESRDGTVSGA
Description: as §3

CYP2C9 [4] = target: T1, CYP2C9; assay: Prediction of in vivo HDI from in vitro results, CYP2C9; set-up: key to Likelihood of causing HDI: If the IC50 values were lower than the GIT or plasma concentration, then the test compound or extract is likely to cause HDI in vivo; conditions: for Likelihood of causing HDI: CYP2C9, IC50 compared with estimated GIT and plasma concentrations; for Plasma concentration: Table 3, CYP2C9 section
Description: as §3

CCCC/C=C\CCCCCCCCCc1cc(O)cc(O)c1 [5-[10(Z)-pentadecenyl]resorcinol]
IC50 (CYP2C9 [1]): 11.9 µM
IC50 (CYP2C9 [2]): 8 ± 1.4 µM
IC50 (CYP2C19): 3.2 ± 0.2 µM
IC50 (CYP1A2): 91.1 µM
Estimated concentration per dose [3]: 6.72 mg/mL
Estimated GIT concentration [3]: 27.1 µg/mL
Estimated Plasma concentration [3]: 2.2 µg/mL
Likelihood of causing HDI (CYP3A4): likely
Plasma concentration (CYP3A4): 13220 ng/mL
Likelihood of causing HDI (CYP2C9 [4]): likely
Plasma concentration (CYP2C9 [4]): 13220 ng/mL

CCCC/C=C\CCCCCCCCCc1cc(O)cc2oc3cc(OC)c(O)c(CCCCCCCCC/C=C\CCCC)c3c12 [Fatimahol]
IC50 (CYP2C9 [1]): 17 µM
IC50 (CYP2C9 [2]): 23 ± 1.5 µM
IC50 (CYP2C19): 16 ± 1.1 µM
IC50 (CYP1A2): 47.9 µM
Estimated concentration per dose [3]: 0.05 mg/mL
Estimated GIT concentration [3]: 0.20 µg/mL
Estimated Plasma concentration [3]: 0.016 µg/mL
Likelihood of causing HDI (CYP3A4): unlikely
Plasma concentration (CYP3A4): 16 ng/mL
Likelihood of causing HDI (CYP2C9 [4]): unlikely
Plasma concentration (CYP2C9 [4]): 16 ng/mL

CCCC/C=C\CCCCCCCCCc1cc(O)cc(OC)c1 [Belamcandol B]
IC50 (CYP2C9 [1]): 69.2 µM
IC50 (CYP2C9 [2]): 23 ± 2.1 µM
IC50 (CYP2C19): 3.2 ± 0.3 µM
IC50 (CYP1A2): 220 µM
Estimated concentration per dose [3]: 3.41 mg/mL
Estimated GIT concentration [3]: 13.64 µg/mL
Estimated Plasma concentration [3]: 1.13 µg/mL
Likelihood of causing HDI (CYP3A4): Remote
Plasma concentration (CYP3A4): 1520 ng/mL
Likelihood of causing HDI (CYP2C9 [4]): remote

CCCC/C=C\CCCCCCCCCC1=C(c2c(O)cc(O)cc2CCCCCCCCC/C=C\CCCC)C(=O)C=C(OC)C1=O [Demethylbelamcandaquinone B]
IC50 (CYP2C9 [1]): 16 µM and 15.1 µM
IC50 (CYP2C9 [2]): 22 ± 1.8 µM
IC50 (CYP2C19): 11 ± 0.7 µM
IC50 (CYP1A2): 75.4 µM
Estimated concentration per dose [3]: 6.77 mg/mL
Estimated GIT concentration [3]: 27.1 µg/mL
Estimated Plasma concentration [3]: 2.25 µg/mL
Likelihood of causing HDI (CYP3A4): unlikely
Plasma concentration (CYP3A4): 790 ng/mL
Likelihood of causing HDI (CYP2C9 [4]): likely
Plasma concentration (CYP2C9 [4]): 790 ng/mL
